# Assay results: patent US10034922B2, “Peptide having angiogenesis inhibitory activity and composition containing same” (GemVax & KAEL Co., Ltd., priority 2013, dated 2018)
# Tests used:
# [1] = tested on: HSP70; test: HSP70 protein level by immunoblotting, serum-free media, 2 h treatment; type: cell-based, human; settings: MCF7 cells, PEP1 20 μM, 17-AAG 1 μM, KNK437 1 μM
# Experimental: (§1) Jurkat and MCF7 cells ([…]) were seeded and incubated for 12 hours. After treating the starvation for 2 hours by adding the OPTI-MEM media, same as the shown figure, the cells were treated by the PEP1 at the different concentrations, by the scrambled peptides, […] (1 μM) or KNK437 (1 μM). After the 2-hour incubation, the cells were collected and lysated by using cell lysis buffer (Thermo Scientific, IL, USA). By using Bradford Protein Assay (Bio-Rad, USA), the protein concentration was quantified, and the samples were treated by SDS-PAGE and immunoblotting with α-HSP70 (sc-32239 and sc-66048, Santa Cruz, Calif., USA), α-HSP90 (ab1429, abcam, USA), α-GRP78 (sc-13968), α-HIF-1a (sc-10790) or α-GAPDH (sc-25778) antibodies. The immune reactive band was visualized by the intensive chemiluminescence kit (iNtRoN Biotechnology, INC, Korea), and analyzed by ImageQuant™ LAS-4000 (GE Healthcare Life Science, NJ, US).
# [2] = tested on: HSP90; test: HSP90 protein level by immunoblotting, serum-free media, 2 h treatment; type: cell-based, human; settings: 17-AAG 1 μM, KNK437 1 μM
# Experimental: as §1
SMILES,"amount of HSP70, comparison with HSP inhibitors [1]","amount of HSP90, comparison with HSP inhibitors ([2]; Jurkat cells, PEP1 5 μM)","amount of HSP90, comparison with HSP inhibitors ([2]; MCF7 cells, PEP1 20 μM)"
C=CCNC1=C2C[C@@H](C)C[C@H](OC)[C@H](O)[C@@H](C)/C=C(\C)[C@H](OC(N)=O)[C@@H](OC)/C=C\C=C(/C)C(=O)NC(=CC1=O)C2=O [17-AAG],very little effect,decreased,very little effect
O=CN1CC/C(=C\c2ccc3c(c2)OCO3)C1=O [KNK437],decrease,decreased,decrease
